For orientation: Cmax means the highest concentration seen after dosing.

Molecules are shown by their SMILES.

Data on one molecule can be found in patent US12564609B2, “Hematopoietic stem cell engraftment with a combination of agents” (The Board of Trustees of the Leland Stanford Junior …, priority 2020, dated 2026).

The conditions of series [1]: patients, subcutaneous administration of 75 mg/m^2 AZA, plasma; cited from earlier work.
The test system of the next series is LT-HSC, ST-HSC, MPP. The experiment in a line: Ki67 expression and HSPC depletion after AZA (dose titration). The series is classed as in vivo, C57BL/6 mice. The protocol: A. Schematic of treatment protocol. […] 24 h after last AZA injection BM was analyzed for HSC-depletion and Ki67 intracellular protein expression. B. […] C. Mean fluorescence intensity (MFI) of Ki67 intracellular protein expression in LT-HSC, ST-HSC, MPP2, MPP3/4 and myeloid progenitors (MP). Data were pooled from 2 independent experiments and represent mean±SD (n=7). Statistics were calculated Mann-Whitney test (*P<0.05; **P<0.01; ***P<0.001). D. Schematic of in vitro culture protocol. Mouse Lin^−Sca1+c-Kit^+CD48^− or human Lin^−CD34^+CD38^− were FACS-sorted and plated in 96-well flat bottom plate, coated with fibronectin and containing 100 μl of HSC media/well, supplemented with 10 ng/ml SCF and 100 ng/ml TPO. Different concentrations of AZA (0.1, 0.5 and 1 μg/ml) were added on two consecutive days (at baseline and 24 h after cell culturing) and cell counting, and cell imaging was performed every 6 h for total of 48 h on ImagExpress Pico automated cell counting system. After 48 h % live/dead cells was assessed by using EarlyTox Live/Dead Assay Kit. E. Proliferation curves of FACS-sorted mouse Lin^−Sca1^+c-Kit^+CD48^− in the presence of indicated concentrations of AZA (left) and cell viability as assessed by % of Calcein AM positive cells after 48 h of cell culture (right). Data represent mean±SD from 3 independent experiments. Statistics were calculated with Mann-Whitney test (*P<0.05; **P<0.01; ***P<0.001). F. Proliferation curves of FACS-sorted human Lin^−CD34^+CD38^− cells in the presence of indicated concentrations of AZA (left) and cell viability as assessed by % of Calcein AM positive cells after 48 h of cell culture (right). Data represent mean±SD from 2 independent experiments. Statistics were calculated with Mann-Whitney test (**P<0.01; ***P<0.001).
Analysis was performed 24 h after last AZA administration. Gated from lineage negative (Lin^−) live cells. Lin^−Sca1^+c-Kit^++ cells (LSK), long-term hematopoietic stem cells (LT-HSC). […] Data were pooled from 2 independent experiments and represent mean±SD (n=7). Statistics were calculated Mann-Whitney test (**P<0.01; ***P<0.001).
In vivo administration of therapeutic agents and cytokines. Anti-mouse CD117 mAbs, clone ACK2 (BioXcell) and 2B8 (BioXcell), were injected retroorbital as a single dose of 500 μg following intraperitoneal administration of Diphenhydramine (Benadryl). Anti CD4 (clone GK1.5, BioXcell) and anti-CD8 (clone YTS169.4, BioXcell) were administered intraperitoneally at a dose of 100 μg in 100 μl phosphate-buffered saline (PBS). 5-Azacytidine (AZA) ([…] Technologies), was reconstituted in PBS to a concentration of 5 mg/ml and kept at −20° for up to 1 month. Before each injection, AZA was thawed for 10-15 min at room temperature (RT), resuspended in PBS and administered intraperitoneally in 100 μl. […]

On to `Nc1ncn([C@@H]2O[C@H](CO)[C@@H](O)[C@H]2O)c(=O)n1` [AZA, 5-Azacytidine], for which the Cmax in series [1] is 750 ± 403.3 ng/mL. In the series with LT-HSC, ST-HSC, MPP (AZA 1.25 mg/kg/d for 3 days, 24 h after last dose), the “level of HSPC (LSK) and LT-HSC after depletion” value is −25 % of baseline. Moreover, the “normalization of Ki67 in HSC and MPP” value in the series on LT-HSC, ST-HSC, MPP (AZA 5 mg/kg/d for 5 days) is at most 10 days. Moreover, in the series on LT-HSC, ST-HSC, MPP (AZA 5 mg/kg/d for 5 days, day 6), the “Ki67 in HSC and MPP” value is given as “significant increase of Ki67”. The “Ki67 protein expression in HSC, MPP and MP compartments” value with LT-HSC, ST-HSC, MPP (AZA 1.25, 2.5 and 5 mg/kg/d for 3 days (all three dose regimens)) is recorded as “significant increase in Ki67 protein expression”.
